Patent publication US20250288658A1 (priority 2022, published 2025)
Bridge positions count the residues as written; N and C are the ends. Square brackets hold non-standard residues; d marks the D form. Side chains are listed from the residue outwards. Peptide text beside a SMILES is read from it. * marks the point of attachment. ξ: configuration not given here. Acetyl(2-S-3ξ-cholesteryl) = CC(C)CCC[C@@H](C)[C@H]1CC[C@H]2[C@@H]3CC=C4CC(SCC(=O)*)CC[C@]4(C)[C@H]3CC[C@]12C; R8 = C=CCCCCCC[C@@](C)(N)C(=O)O; PEG4 = NCCOCCOCCOCCOCCC(=O)O; S5 = C=CCCC[C@](C)(N)C(=O)O

Tested on: wild type EBOV
Details: 24 h

Work on CC[C@H](C)[C@H](NC(=O)[C@H](C)NC(=O)[C@H](CS)NC(=O)[C@H](CC(=O)O)NC(=O)[C@@H]1CCCN1C(=O)CNC(=O)[C@H](CC(C)C)NC(=O)[C@@H](NC(=O)[C@H](Cc1c[nH]cn1)NC(=O)[C@H](CS)NC(=O)[C@@H](NC(C)=O)[C@@H](C)O)[C@@H](C)CC)C(=O)N[C@@H](CCC(=O)O)C(=O)N1CCC[C@H]1C(=O)N[C@@H](Cc1c[nH]cn1)C(=O)N[C@@H](CC(=O)O)C(=O)N[C@@H](Cc1c[nH]c2ccccc12)C(=O)N[C@H](C(=O)N[C@]1(C)CCCCCCC=CCCC[C@@](C)(C(=O)N[C@@H](CCC(N)=O)C(=O)N[C@H](C(=O)N[C@H](C(=O)N[C@@H](Cc2c[nH]cn2)C(=O)N[C@@H](CC(=O)O)C(=O)N[C@@H](Cc2ccccc2)C(=O)N[C@H](C(=O)N[C@@H](CCCCNC(=O)CCOCCOCCOCCOCCNC(=O)CSC2CC[C@@]3(C)C(=CC[C@H]4[C@@H]5CC[C@H]([C@H](C)CCCC(C)C)[C@@]5(C)CC[C@@H]43)C2)C(N)=O)C(C)C)[C@@H](C)CC)[C@@H](C)CC)NC(=O)[C@H]([C@@H](C)CC)NC(=O)[C@H](CCCCN)NC(=O)[C@H](CC(=O)O)NC(=O)[C@H]([C@@H](C)O)NC(=O)[C@H]([C@@H](C)CC)NC(=O)[C@H](CC(N)=O)NC1=O)[C@@H](C)O (stereo partly shown) [SEQ ID NO:22, TCHILGPDCAIEPHDWT8NITDKIXQIIHDFV*] (Ac-TCHILGPDCAIEPHDWT[R8]NITDKI[S5]QIIHDFVK([PEG4-Acetyl(2-S-3ξ-cholesteryl)])-NH2; staple 18-25) yielded an IC50 of roughly 1500 nM.
